Our source for the IC50 values is patent publication US8846704B2, “Thiopyrimidine-based compounds and uses thereof” (YM Biosciences Austraila Pty Ltd, priority 2007, dated 2014).

The target in one assay is T1, human JAK2 (Homo sapiens, UniProt O60674).
T1 construct: The kinase domain of human JAK2 was amplified; GST (N); made in house; host or cells: Sf9 insect cells (baculovirus)
The assay can be described thus: Alphascreen tyrosine kinase enzyme assay, JAK2 kinase domain. The format is biochemical. The conditions noted are these: read-out: JAK2 IC50_nM. An outline of the steps:
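JAK2 kinase domain expressed in baculovirus/Sf9 and glutathione-affinity purified. Compounds (final […]) pre-incubated 20 min with enzyme in 10 mM HEPES pH 7.5, MgCl2, NaCl, vanadate, 0.1% Tween 20.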
(In general: Bead proximity is the source of the signal in Alpha formats.)

The target of the next assay is T2, human JAK3 (Homo sapiens, UniProt P52333).
T2 construct: The kinase domain of human JAK3 was amplified; GST (N); made in house; host or cells: Sf9 insect cells (baculovirus)
T2 sequence (P52333 822-1111 limits assumed): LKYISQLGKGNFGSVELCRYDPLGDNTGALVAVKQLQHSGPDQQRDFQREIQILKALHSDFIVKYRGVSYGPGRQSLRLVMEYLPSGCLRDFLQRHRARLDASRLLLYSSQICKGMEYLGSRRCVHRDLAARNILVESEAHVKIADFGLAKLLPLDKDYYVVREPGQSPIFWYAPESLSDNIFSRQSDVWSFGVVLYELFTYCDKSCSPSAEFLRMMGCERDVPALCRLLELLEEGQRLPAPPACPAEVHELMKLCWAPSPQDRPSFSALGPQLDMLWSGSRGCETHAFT
The assay can be described thus: Alphascreen tyrosine kinase enzyme assay, JAK3 kinase domain. The format is biochemical. Particulars: read-out: JAK3 IC50_nM. An outline of the steps: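 GST-affinity-purified human JAK3 kinase domain (baculovirus/Sf9) was pre-incubated 20 min with compound ([…]) in HEPES pH 7.5 buffer with MgCl2, vanadate and Tween 20. Biotinylated peptide substrate ([…]) and ATP were then added; phosphotyrosine was detected by AlphaScreen PY100 acceptor and streptavidin donor beads after 2–3 h.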

The subject of a further assay is BaF3 wild-type cells. The assay can be described thus: Cellular screening, BaF3 wild-type cells, Alamar Blue. The format is cell-based. The conditions noted are these: Mus musculus, 40 hr, read-out: BAF3wt IC50_nM. In outline:
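Compounds, screened from dilution plates at 20 μM, were added as 10× final stocks to cells grown in DMEM/10% FCS/10% WEHI 3B conditioned medium. Cells were seeded at 1.1× final (50,000–200,000 cells/mL) and incubated 40 hr at 37° C, 5% CO2. Viability was read at 544 nm after a further 4–6 hours with Alamar Blue.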
A general note: The colour change of resazurin is a common sign of viable cells or microbes.

T1 sequence (O60674 849-1124 limits assumed): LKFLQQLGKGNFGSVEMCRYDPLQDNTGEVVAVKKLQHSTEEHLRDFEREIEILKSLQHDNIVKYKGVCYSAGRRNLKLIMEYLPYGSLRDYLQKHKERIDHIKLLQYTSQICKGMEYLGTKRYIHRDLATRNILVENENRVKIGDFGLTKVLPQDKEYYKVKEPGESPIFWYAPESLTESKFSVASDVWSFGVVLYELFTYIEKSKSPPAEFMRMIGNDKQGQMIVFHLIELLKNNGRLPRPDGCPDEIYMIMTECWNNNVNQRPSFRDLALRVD

As to `C=CC(=O)Nc1ccc(Sc2nc(Nc3ccc4c(c3)OCO4)ncc2C)cc1` [Compound 284, N-(4-(2-(benzo[d][1,3]dioxol-5-ylao)-5-methylpyrimidin-4-ylthio)phenyl)acrylamide], the IC50 on human JAK2 was more than 1000 nM; at human JAK3, less than 100 nM; in the assay on BaF3 wild-type cells, less than 20000 nM.

As for `C=CC(=O)Nc1ccc(Sc2nc(Nc3cccc(OC(F)(F)F)c3)ncc2C)cc1` [Compound 289, N-(4-(5-methyl-2-(3-(trifluoromethoxy)phenylao)pyrimidin-4-ylthio)phenyl)acrylamide], the IC50 at human JAK2 was more than 1000 nM; on human JAK3, less than 100 nM; in the assay on BaF3 wild-type cells, more than 20000 nM.

In the case of `C=CC(=O)Nc1ccc(Sc2nc(Nc3ccc(N4CCS(=O)(=O)CC4)cc3)ncc2C)cc1` [Compound 298, N-{4-[(2-{[4-(1,1-dioxo-1λ^6,4-thiomorpholin-4-yl)phenyl]ao}-5-methylpyrimidin-4-yl)sulfanyl]phenyl}prop-2-enamide], the values for the IC50 at human JAK2, on human JAK3 and with BaF3 wild-type cells were more than 1000 nM, less than 100 nM and less than 20000 nM, respectively.

In the case of `C=CC(=O)Nc1ccc(Sc2nc(Nc3cccc(OCCCO)c3)ncc2C)cc1` [Compound 301, N-(4-(2-(3-(3-hydroxypropoxy)phenylao)-5-methylpyrimidin-4-ylthio)phenyl)acrylamide], the IC50 at human JAK2 was more than 1000 nM; on human JAK3 it was less than 100 nM; in the assay with BaF3 wild-type cells, less than 20000 nM.

In the case of `Nc1ccc(Sc2nc(Nc3ccc(N4CCOCC4)cc3)ncc2I)cc1` [Compound 309, 4-(4-aophenylthio)-5-iodo-N-(4-morpholinophenyl)pyrimidin-2-ae], the IC50 at human JAK2 is more than 1000 nM; at human JAK3 it was less than 500 nM; in the assay on BaF3 wild-type cells it was less than 5000 nM.

For `C=CC(=O)Nc1ccc(Sc2nc(Nc3ccc(N4CCOCC4)cc3)ncc2I)cc1` [Compound 313, N-(4-(5-iodo-2-(4-morpholinophenylao)pyrimidin-4-ylthio)phenyl)acrylamide], the figures for the IC50 at human JAK2, at human JAK3 and with BaF3 wild-type cells were more than 1000 nM, less than 100 nM and more than 20000 nM, respectively.

As for `C=CC(=O)Nc1ccc(Sc2nc(Nc3ccc(N4CCOCC4)cc3)ncc2Cl)cc1` [Compound 315, N-(4-(5-chloro-2-(4-morpholinophenylao)pyrimidin-4-ylthio)phenyl)acrylmide], the IC50 at human JAK2 is more than 1000 nM; on human JAK3, less than 100 nM; with BaF3 wild-type cells, more than 20000 nM.

With `Nc1ccc(Sc2nc(Nc3ccc(N4CCOCC4)cc3)ncc2Cl)cc1` [Compound 318, 4-(4-aophenylthio)-5-chloro-N-(4-morpholinophenyl)pyrimidin-2-ae], the IC50 on human JAK2 is more than 1000 nM; on human JAK3, less than 100 nM; in the assay on BaF3 wild-type cells, less than 20000 nM.

As for `C=C(CN1CCOCC1)C(=O)Nc1cccc(Sc2ccnc(Nc3ccc(N4CCOCC4)cc3)n2)c1` [Compound 328, 2-(morpholinomethyl)-N-(3-(2-(4-morpholinophenylao)pyrimidin-4-ylthio)phenyl)acrylamide], the IC50 at human JAK2 was more than 1000 nM; at human JAK3 it was less than 100 nM; with BaF3 wild-type cells, less than 5000 nM.

On to `O=C(CCl)Nc1cccc(Sc2ccnc(Nc3ccc(N4CCOCC4)cc3)n2)c1` [Compound 332, 2-chloro-N-(3-(2-(4-morpholinophenylao)pyrimidin-4-ylthio)phenyl)acetamide], for which the IC50 on human JAK2 was more than 1000 nM; on human JAK3 it was less than 100 nM; in the assay on BaF3 wild-type cells, less than 5000 nM.

Consider `O=C(/C=C/Cl)Nc1ccc(Sc2ccnc(Nc3ccc(N4CCOCC4)cc3)n2)cc1` [Compound 342, (E)-3-chloro-N-(4-(2-(4-morpholinophenylao)pyrimidin-4-ylthio)phenyl)acrylamide], for which the IC50 on human JAK2 is more than 1000 nM; at human JAK3 it was less than 100 nM; in the assay with BaF3 wild-type cells, more than 20000 nM.

Turning to `Cc1cnc(Nc2ccc(N3CCOCC3)cc2)nc1Sc1ccc(NC(=O)/C=C/Cl)cc1` [Compound 343, (E)-3-chloro-N-(4-(5-methyl-2-(4-morpholinophenylao)pyrimidin-4-ylthio)phenyl)acrylamide], the IC50 is more than 1000 nM on human JAK2, less than 100 nM at human JAK3 and less than 20000 nM with BaF3 wild-type cells.

Take `CCC(=O)Nc1ccc(Sc2nc(Nc3ccc(N4CCOCC4)cc3)ncc2Cl)cc1` [Compound 347, N-(4-(5-chloro-2-(4-morpholinophenylao)pyrimidin-4-ylthio)phenyl)propionamide]: the IC50 on human JAK2 was more than 1000 nM; on human JAK3, less than 100 nM; with BaF3 wild-type cells, more than 20000 nM.

As to `C=CC(=O)Nc1ccc(Sc2ccnc(Nc3cccc(N4CCCC4)c3)n2)cc1` [Compound 355, N-(4-(2-(3-(pyrrolidin-1-yl)phenylao)pyrimidin-4-ylthio)phenyl)acrylamide], the IC50 on human JAK2 is more than 1000 nM; at human JAK3, less than 100 nM; with BaF3 wild-type cells, less than 20000 nM.

On to `C=CC(=O)Nc1ccc(Sc2ccnc(Nc3cccc([N+](=O)[O-])c3)n2)cc1` [Compound 361, N-(4-(2-(3-nitrophenylao)pyrimidin-4-ylthio)phenyl)acrylamide], for which the IC50 is more than 1000 nM on human JAK2, less than 100 nM on human JAK3 and more than 20000 nM in the assay with BaF3 wild-type cells.

Turning to `C=CC(=O)Nc1ccc(Sc2ccnc(Nc3cccc(S(=O)(=O)N4CCN(C)CC4)c3)n2)cc1` [Compound 365, N-(4-(2-(3-(4-methylpiperazin-1-ylsulfonyl)phenylao)pyrimidin-4-ylthio)phenyl)acrylamide], the IC50 at human JAK2 is more than 1000 nM; on human JAK3, less than 100 nM; with BaF3 wild-type cells, less than 20000 nM.

With `C=CC(=O)Nc1ccc(Sc2ccnc(Nc3cccc(S(=O)(=O)NCc4ccccc4)c3)n2)cc1` [Compound 366, N-(4-(2-(3-(N-benzylsulfamoyl)phenylao)pyrimidin-4-ylthio)phenyl)acrylamide], the IC50 on human JAK2 was more than 1000 nM; at human JAK3, less than 100 nM; in the assay with BaF3 wild-type cells, less than 20000 nM.

Take `C=CC(=O)Nc1ccc(Sc2ccnc(Nc3ccc(S(=O)(=O)N4CCOCC4)cc3)n2)cc1` [Compound 367, N-(4-(2-(4-(morpholinosulfonyl)phenylao)pyrimidin-4-ylthio)phenyl)acrylamide]: the IC50 at human JAK2 was more than 1000 nM; at human JAK3 it was less than 100 nM; with BaF3 wild-type cells, less than 20000 nM.

Regarding `C=CC(=O)Nc1ccc(Sc2ccnc(Nc3ccc(S(=O)(=O)NCc4ccccc4)cc3)n2)cc1` [Compound 368, N-(4-(2-(4-(N-benzylsulfamoyl)phenylao)pyrimidin-4-ylthio)phenyl)acrylamide], the IC50 at human JAK2 is more than 1000 nM; at human JAK3 it was less than 100 nM; in the assay with BaF3 wild-type cells it was less than 20000 nM.

`C=CC(=O)Nc1ccc(Sc2ccnc(Nc3ccc(S(=O)(=O)N4CCN(C)CC4)cc3)n2)cc1` [Compound 370, N-(4-(2-(4-(4-methylpiperazin-1-ylsulfonyl)phenylao)pyrimidin-4-ylthio)phenyl)acrylamide]: the IC50 at human JAK2 was more than 1000 nM; on human JAK3, less than 100 nM; in the assay with BaF3 wild-type cells it was less than 20000 nM.

In the case of `C=CC(=O)Nc1ccc(Sc2ccnc(Nc3ccc(S(=O)(=O)NCCC(C)C)cc3)n2)cc1` [Compound 371, N-(4-(2-(4-(N-isopentylsulfamoyl)phenylao)pyrimidin-4-ylthio)phenyl)acrylamide], the values for the IC50 on human JAK2, at human JAK3 and with BaF3 wild-type cells were more than 1000 nM, less than 100 nM and less than 20000 nM, respectively.

For the compound `C=CC(=O)Nc1ccc(Sc2ccnc(Nc3cccc(S(=O)(=O)N4CCOCC4)c3)n2)cc1` [Compound 372, N-(4-(2-(3-(morpholinosulfonyl)phenylao)pyrimidin-4-ylthio)phenyl)acrylamide], the figures for the IC50 at human JAK2, on human JAK3 and in the assay on BaF3 wild-type cells were more than 1000 nM, less than 100 nM and less than 5000 nM, respectively.
